Data taken from patent publication US20030013684A1, “Agricultural composition” (priority 2001, published 2003).

Experiments:
[1] = cited from earlier work
[2] = Coprecipitation of a chemical substance with a tannin or chelating agent and a metal salt in water; assay type: physicochemical; details: (+)-catechin 60 mg and lead acetate 60 mg
Experimental: After stirring for a while, a coprecipitate was formed.
In a similar manner, for the following combinations of a chemical substance and a metal salt, a proportion of the chemical substance taken into a coprecipitate was determined.
Chemical substance: (B) acephate, (C) acetamiprid, (D) urea;
Chelating agent: (Q) sodium ethylenediamine tetraacetate, (R) aminotrimethylenephosphonic acid;
Metal salt: (b) potassium acetate, (c) manganese acetate, (d) aluminum acetate, (e) nickel acetate, (f) cobalt acetate, (g) calcium acetate, (h) magnesium acetate, (i) magnesium chloride and (j) sodium acetate.
After completion of dissolving, the solution was analyzed for dinotefuran. […] After stirring for a while, a coprecipitate was formed. The supernatant was analyzed for dinotefuran A to determine a proportion of dinotefuran taken into the coprecipitate.

Structure (SMILES) | water solubility [1] [ppm] | proportion of dinotefuran taken into the coprecipitate [2] [%]
CCOP(=O)(OCC)O/C(=C\Cl)c1ccc(Cl)cc1Cl [CVP, Chlorfenvin-phos] | 1500 | 
CNC(=N[N+](=O)[O-])NCC1CCOC1 (racemic) [dinotefuran, (RS)-1-methyl-2-nitro-3-[(3-tetrahydrofuryl)methyl]guanidine] |  | 41
C/C(=N\C#N)N(C)Cc1ccc(Cl)nc1 [acetamiprid] | 4200 | 
CCSCc1ccccc1OC(=O)NC [etiofencarb] | 1800 | 
COc1nc(NC(C)C)nc(NC(C)C)n1 [promethone] | 750 | 
